Laboratory results taken from the supplement of paper PMC10307832.

Columns and labels:
Assay in all cases: relative viability (nuclei count vs DMSO), 5 days (fraction); higher = more cells survive
[1] = compound: Cn1nnc2c(C(N)=O)ncn2c1=O [Temozolomide] + CC1(C)CCC(c2ccc(Cl)cc2)=C(CN2CCN(c3ccc(C(=O)NS(=O)(=O)c4ccc(N[C@H](CCN5CCOCC5)CSc5ccccc5)c(S(=O)(=O)C(F)(F)F)c4)cc3)CC2)C1 [Navitoclax] (partner 0.5 µM)
Summary of the method: (§1)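 Lung cancer cell lines in 1536-well plates got either a single drug or a fixed anchor-drug dose together with five library-drug doses (not always all listed) in √10 steps, by pin tool, on the day after seeding. Nuclei were counted after 5 days, and relative viability is the treated-to-vehicle ratio of nuclei counts. Values are medians of duplicate plates.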

[2] = compound: Cn1nnc2c(C(N)=O)ncn2c1=O [Temozolomide] + CCNC(=O)c1noc(-c2cc(C(C)C)c(O)cc2O)c1-c1ccc(CN2CCOCC2)cc1 [Luminespib] (partner 0.01 µM)
Summary of the method: as §1

Temozolomide + Dasatinib = compound: Cn1nnc2c(C(N)=O)ncn2c1=O [Temozolomide] + Cc1nc(Nc2ncc(C(=O)Nc3c(C)cccc3Cl)s2)cc(N2CCN(CCO)CC2)n1 [Dasatinib] (partner 0.075 µM)
Summary of the method: as §1

Temozolomide + AZD7762 = compound: Cn1nnc2c(C(N)=O)ncn2c1=O [Temozolomide] + NC(=O)Nc1cc(-c2cccc(F)c2)sc1C(=O)N[C@H]1CCCNC1 [AZD7762] (partner 0.2 µM)
Summary of the method: as §1

Cell Line: 201T
- relative viability ([1]; first compound 0.2 µM): 1.17
- relative viability ([1]; first compound 0.6325 µM): 1.18
- relative viability ([1]; first compound 2 µM): 1.21
- relative viability ([1]; first compound 6.325 µM): 1.2
- relative viability ([1]; first compound 20 µM): 1.22
- relative viability ([2]; first compound 0.2 µM): 1.11
- relative viability ([2]; first compound 0.6325 µM): 1.07
- relative viability ([2]; first compound 2 µM): 1.05
- relative viability ([2]; first compound 6.325 µM): 1.02
- relative viability ([2]; first compound 20 µM): 0.985
- relative viability (Temozolomide + Dasatinib; first compound 0.2 µM): 0.584
- relative viability (Temozolomide + Dasatinib; first compound 0.6325 µM): 0.523
- relative viability (Temozolomide + Dasatinib; first compound 2 µM): 0.539
- relative viability (Temozolomide + Dasatinib; first compound 6.325 µM): 0.57
- relative viability (Temozolomide + Dasatinib; first compound 20 µM): 0.565
- relative viability (Temozolomide + AZD7762; first compound 0.2 µM): 0.648
- relative viability (Temozolomide + AZD7762; first compound 0.6325 µM): 0.649
- relative viability (Temozolomide + AZD7762; first compound 2 µM): 0.746
- relative viability (Temozolomide + AZD7762; first compound 6.325 µM): 0.566
- relative viability (Temozolomide + AZD7762; first compound 20 µM): 0.519

Cell Line: A549
- relative viability ([1]; first compound 0.2 µM): 1.07
- relative viability ([1]; first compound 0.6325 µM): 1.34
- relative viability ([1]; first compound 2 µM): 1.25
- relative viability ([1]; first compound 6.325 µM): 1.23
- relative viability ([1]; first compound 20 µM): 1.24

Cell Line: A-427
- relative viability ([1]; first compound 0.2 µM): 0.971
- relative viability ([1]; first compound 0.6325 µM): 0.923
- relative viability ([1]; first compound 2 µM): 0.949
- relative viability ([1]; first compound 6.325 µM): 0.596
- relative viability ([1]; first compound 20 µM): 0.592
- relative viability ([2]; first compound 0.2 µM): 0.699
- relative viability ([2]; first compound 0.6325 µM): 0.803
- relative viability ([2]; first compound 2 µM): 0.799
- relative viability ([2]; first compound 6.325 µM): 0.618
- relative viability ([2]; first compound 20 µM): 0.394
- relative viability (Temozolomide + Dasatinib; first compound 0.2 µM): 0.736
- relative viability (Temozolomide + Dasatinib; first compound 0.6325 µM): 0.669
- relative viability (Temozolomide + Dasatinib; first compound 2 µM): 0.762
- relative viability (Temozolomide + Dasatinib; first compound 6.325 µM): 0.525
- relative viability (Temozolomide + Dasatinib; first compound 20 µM): 0.356
- relative viability (Temozolomide + AZD7762; first compound 0.2 µM): 0.758
- relative viability (Temozolomide + AZD7762; first compound 0.6325 µM): 0.744
- relative viability (Temozolomide + AZD7762; first compound 2 µM): 0.698
- relative viability (Temozolomide + AZD7762; first compound 6.325 µM): 0.472
- relative viability (Temozolomide + AZD7762; first compound 20 µM): 0.422

Cell Line: ABC-1
- relative viability ([2]; first compound 0.2 µM): 0.507
- relative viability ([2]; first compound 0.6325 µM): 0.439
- relative viability ([2]; first compound 2 µM): 0.788
- relative viability ([2]; first compound 6.325 µM): 0.551
- relative viability ([2]; first compound 20 µM): 0.553
- relative viability (Temozolomide + Dasatinib; first compound 0.2 µM): 0.621
- relative viability (Temozolomide + Dasatinib; first compound 0.6325 µM): 0.558
- relative viability (Temozolomide + Dasatinib; first compound 2 µM): 0.607
- relative viability (Temozolomide + Dasatinib; first compound 6.325 µM): 0.49
- relative viability (Temozolomide + Dasatinib; first compound 20 µM): 0.586
- relative viability (Temozolomide + AZD7762; first compound 0.2 µM): 0.712
- relative viability (Temozolomide + AZD7762; first compound 0.6325 µM): 0.761
- relative viability (Temozolomide + AZD7762; first compound 2 µM): 0.761
- relative viability (Temozolomide + AZD7762; first compound 6.325 µM): 0.762
- relative viability (Temozolomide + AZD7762; first compound 20 µM): 0.763

Cell Line: BEN
- relative viability ([1]; first compound 0.2 µM): 0.0644
- relative viability ([1]; first compound 0.6325 µM): 0.0697
- relative viability ([1]; first compound 2 µM): 0.0579
- relative viability ([1]; first compound 6.325 µM): 0.0678
- relative viability ([1]; first compound 20 µM): 0.0653
- relative viability ([2]; first compound 0.2 µM): 0.323
- relative viability ([2]; first compound 0.6325 µM): 0.323
- relative viability ([2]; first compound 2 µM): 0.462
- relative viability ([2]; first compound 6.325 µM): 0.233
- relative viability ([2]; first compound 20 µM): 0.228
- relative viability (Temozolomide + Dasatinib; first compound 0.2 µM): 0.285
- relative viability (Temozolomide + Dasatinib; first compound 0.6325 µM): 0.356
- relative viability (Temozolomide + Dasatinib; first compound 2 µM): 0.31
- relative viability (Temozolomide + Dasatinib; first compound 6.325 µM): 0.257
- relative viability (Temozolomide + Dasatinib; first compound 20 µM): 0.263
- relative viability (Temozolomide + AZD7762; first compound 0.2 µM): 0.712
- relative viability (Temozolomide + AZD7762; first compound 0.6325 µM): 0.616
- relative viability (Temozolomide + AZD7762; first compound 2 µM): 0.779
- relative viability (Temozolomide + AZD7762; first compound 6.325 µM): 0.689
- relative viability (Temozolomide + AZD7762; first compound 20 µM): 0.678

Cell Line: CAL-12T
- relative viability ([1]; first compound 0.2 µM): 1.35
- relative viability ([1]; first compound 0.6325 µM): 1.13
- relative viability ([1]; first compound 2 µM): 1.21
- relative viability ([1]; first compound 6.325 µM): 1.29
- relative viability ([1]; first compound 20 µM): 1.26
- relative viability ([2]; first compound 0.2 µM): 0.27
- relative viability ([2]; first compound 0.6325 µM): 0.518
- relative viability ([2]; first compound 2 µM): 0.862
- relative viability ([2]; first compound 6.325 µM): 0.115
- relative viability ([2]; first compound 20 µM): 0.723
- relative viability (Temozolomide + Dasatinib; first compound 0.2 µM): 0.444
- relative viability (Temozolomide + Dasatinib; first compound 0.6325 µM): 0.455
- relative viability (Temozolomide + Dasatinib; first compound 2 µM): 0.427
- relative viability (Temozolomide + Dasatinib; first compound 6.325 µM): 0.381
- relative viability (Temozolomide + Dasatinib; first compound 20 µM): 0.346
- relative viability (Temozolomide + AZD7762; first compound 0.2 µM): 0.645
- relative viability (Temozolomide + AZD7762; first compound 0.6325 µM): 0.618
- relative viability (Temozolomide + AZD7762; first compound 2 µM): 0.628
- relative viability (Temozolomide + AZD7762; first compound 6.325 µM): 0.657
- relative viability (Temozolomide + AZD7762; first compound 20 µM): 0.699

Cell Line: COR-L23
- relative viability ([1]; first compound 0.2 µM): 1.2
- relative viability ([1]; first compound 0.6325 µM): 0.933
- relative viability ([1]; first compound 2 µM): 1.02
- relative viability ([1]; first compound 6.325 µM): 0.976
- relative viability ([1]; first compound 20 µM): 0.938
- relative viability ([2]; first compound 0.2 µM): 0.639
- relative viability ([2]; first compound 0.6325 µM): 0.669
- relative viability ([2]; first compound 2 µM): 0.737
- relative viability ([2]; first compound 6.325 µM): 0.696
- relative viability ([2]; first compound 20 µM): 0.612
- relative viability (Temozolomide + Dasatinib; first compound 0.2 µM): 0.635
- relative viability (Temozolomide + Dasatinib; first compound 0.6325 µM): 0.516
- relative viability (Temozolomide + Dasatinib; first compound 2 µM): 0.542
- relative viability (Temozolomide + Dasatinib; first compound 6.325 µM): 0.461
- relative viability (Temozolomide + Dasatinib; first compound 20 µM): 0.6

Cell Line: COR-L 105
- relative viability ([1]; first compound 0.2 µM): 0.819
- relative viability ([1]; first compound 0.6325 µM): 0.866
- relative viability ([1]; first compound 2 µM): 0.996
- relative viability ([1]; first compound 6.325 µM): 0.858
- relative viability ([1]; first compound 20 µM): 0.649
- relative viability ([2]; first compound 0.2 µM): 0.798
- relative viability ([2]; first compound 0.6325 µM): 0.781
- relative viability ([2]; first compound 2 µM): 1.13
- relative viability ([2]; first compound 6.325 µM): 0.561
- relative viability ([2]; first compound 20 µM): 1.04
- relative viability (Temozolomide + Dasatinib; first compound 0.2 µM): 0.285
- relative viability (Temozolomide + Dasatinib; first compound 0.6325 µM): 0.358
- relative viability (Temozolomide + Dasatinib; first compound 2 µM): 0.481
- relative viability (Temozolomide + Dasatinib; first compound 6.325 µM): 0.313
- relative viability (Temozolomide + Dasatinib; first compound 20 µM): 0.188

Cell Line: Calu-6
- relative viability ([1]; first compound 0.2 µM): 0.927
- relative viability ([1]; first compound 0.6325 µM): 0.804
- relative viability ([1]; first compound 2 µM): 0.942
- relative viability ([1]; first compound 6.325 µM): 0.82
- relative viability ([1]; first compound 20 µM): 0.781

Cell Line: ChaGo-K-1
- relative viability ([1]; first compound 0.2 µM): 1.11
- relative viability ([1]; first compound 0.6325 µM): 1.16
- relative viability ([1]; first compound 2 µM): 1.45
- relative viability ([1]; first compound 6.325 µM): 0.968
- relative viability ([1]; first compound 20 µM): 0.964
- relative viability ([2]; first compound 0.2 µM): 0.679
- relative viability ([2]; first compound 0.6325 µM): 0.625
- relative viability ([2]; first compound 2 µM): 0.785
- relative viability ([2]; first compound 6.325 µM): 0.557
- relative viability ([2]; first compound 20 µM): 0.556
- relative viability (Temozolomide + Dasatinib; first compound 0.2 µM): 0.605
- relative viability (Temozolomide + Dasatinib; first compound 0.6325 µM): 0.603
- relative viability (Temozolomide + Dasatinib; first compound 2 µM): 0.781
- relative viability (Temozolomide + Dasatinib; first compound 6.325 µM): 0.552
- relative viability (Temozolomide + Dasatinib; first compound 20 µM): 0.579
- relative viability (Temozolomide + AZD7762; first compound 0.2 µM): 0.939
- relative viability (Temozolomide + AZD7762; first compound 0.6325 µM): 0.902
- relative viability (Temozolomide + AZD7762; first compound 2 µM): 0.922
- relative viability (Temozolomide + AZD7762; first compound 6.325 µM): 0.858
- relative viability (Temozolomide + AZD7762; first compound 20 µM): 0.904

Cell Line: EBC-1
- relative viability ([1]; first compound 0.2 µM): 0.512
- relative viability ([1]; first compound 0.6325 µM): 0.41
- relative viability ([1]; first compound 2 µM): 0.358
- relative viability ([1]; first compound 6.325 µM): 0.384
- relative viability ([1]; first compound 20 µM): 0.404
